From the NIST ThermoML archive (doi:10.1021/je060355j)
± gives the expanded uncertainty stated by the source.

Tests used:
[1] = xn = mol fraction of the nth substance listed; conditions: 101.32 kPa, Liquid
[2] = excess molar enthalpy (molar enthalpy of mixing); xn = mol fraction of the nth substance listed; conditions: 101.32 kPa, Liquid

CCCCOC=O [butyl methanoate] + CCCCCC
Conditions | excess molar enthalpy [kcal/mol] | mass density [kg/m3]
[1], 291.15 K, x1 = 0.0445 | – | 669.6 ± 2
[1], 291.15 K, x1 = 0.09 | – | 678.6 ± 2
[1], 291.15 K, x1 = 0.1461 | – | 689.8 ± 2
[1], 291.15 K, x1 = 0.1928 | – | 699.5 ± 2
[1], 291.15 K, x1 = 0.249 | – | 711.4 ± 2
[1], 291.15 K, x1 = 0.3018 | – | 722.7 ± 2
[1], 291.15 K, x1 = 0.4025 | – | 745.2 ± 1.9
[1], 291.15 K, x1 = 0.5021 | – | 768.3 ± 1.9
[1], 291.15 K, x1 = 0.5957 | – | 790.7 ± 2
[1], 291.15 K, x1 = 0.6963 | – | 815.7 ± 2
[1], 291.15 K, x1 = 0.7541 | – | 830.4 ± 2.1
[1], 291.15 K, x1 = 0.802 | – | 842.7 ± 2.1
[1], 291.15 K, x1 = 0.8532 | – | 856.1 ± 2.2
[1], 291.15 K, x1 = 0.8987 | – | 868.2 ± 2.2
[1], 291.15 K, x1 = 0.9575 | – | 884.3 ± 2.3
[1], 291.15 K, x1 = 1 | – | 896 ± 2.4
[1], 298.15 K, x1 = 0.0729 | – | 669.39 ± 2
[1], 298.15 K, x1 = 0.1321 | – | 681.03 ± 2
[1], 298.15 K, x1 = 0.1967 | – | 694.2 ± 2
[1], 298.15 K, x1 = 0.2658 | – | 708.76 ± 2
[1], 298.15 K, x1 = 0.336 | – | 723.94 ± 2
[1], 298.15 K, x1 = 0.3698 | – | 731.4 ± 2
[1], 298.15 K, x1 = 0.4886 | – | 758.31 ± 2
[1], 298.15 K, x1 = 0.5876 | – | 781.81 ± 2
[1], 298.15 K, x1 = 0.6855 | – | 805.81 ± 2
[1], 298.15 K, x1 = 0.7677 | – | 826.55 ± 2.1
[1], 298.15 K, x1 = 0.8136 | – | 838.26 ± 2.1
[1], 298.15 K, x1 = 0.8574 | – | 849.77 ± 2.2
[1], 298.15 K, x1 = 0.8986 | – | 860.63 ± 2.2
[1], 298.15 K, x1 = 0.9227 | – | 867.09 ± 2.3
[1], 298.15 K, x1 = 0.9714 | – | 880.08 ± 2.3
[1], 298.15 K, x1 = 1 | – | 888.66 ± 2.4
[1], 308.15 K, x1 = 0.047 | – | 654.6 ± 2.1
[1], 308.15 K, x1 = 0.1095 | – | 666.7 ± 2.1
[1], 308.15 K, x1 = 0.1485 | – | 674.6 ± 2.1
[1], 308.15 K, x1 = 0.2005 | – | 685.2 ± 2
[1], 308.15 K, x1 = 0.2579 | – | 697.2 ± 2
[1], 308.15 K, x1 = 0.2981 | – | 705.7 ± 2
[1], 308.15 K, x1 = 0.4033 | – | 728.8 ± 2
[1], 308.15 K, x1 = 0.5098 | – | 753.1 ± 2
[1], 308.15 K, x1 = 0.6081 | – | 776.4 ± 2
[1], 308.15 K, x1 = 0.7112 | – | 801.8 ± 2.1
[1], 308.15 K, x1 = 0.7576 | – | 813.5 ± 2.1
[1], 308.15 K, x1 = 0.8073 | – | 826.3 ± 2.2
[1], 308.15 K, x1 = 0.8511 | – | 837.7 ± 2.2
[1], 308.15 K, x1 = 0.9081 | – | 852.9 ± 2.3
[1], 308.15 K, x1 = 0.9598 | – | 867.3 ± 2.3
[1], 308.15 K, x1 = 1 | – | 878.24 ± 2.4
[1], 318.15 K, x1 = 0.0493 | – | 645.6 ± 2.1
[1], 318.15 K, x1 = 0.0857 | – | 652.7 ± 2.1
[1], 318.15 K, x1 = 0.1192 | – | 659.1 ± 2.1
[1], 318.15 K, x1 = 0.1589 | – | 666.9 ± 2.1
[1], 318.15 K, x1 = 0.1975 | – | 674.7 ± 2.1
[1], 318.15 K, x1 = 0.2452 | – | 684.5 ± 2.1
[1], 318.15 K, x1 = 0.3006 | – | 696.2 ± 2.1
[1], 318.15 K, x1 = 0.4015 | – | 718 ± 2
[1], 318.15 K, x1 = 0.495 | – | 739.2 ± 2
[1], 318.15 K, x1 = 0.5929 | – | 762.2 ± 2.1
[1], 318.15 K, x1 = 0.705 | – | 789.5 ± 2.1
[1], 318.15 K, x1 = 0.746 | – | 799.7 ± 2.1
[1], 318.15 K, x1 = 0.8134 | – | 817.05 ± 2.2
[1], 318.15 K, x1 = 0.9067 | – | 841.5 ± 2.3
[1], 318.15 K, x1 = 0.9647 | – | 857.1 ± 2.4
[1], 318.15 K, x1 = 1 | – | 867.21 ± 2.4
[2], 291.15 K, x1 = 0.0865 | 0.0769 ± 0.00174 | –
[2], 291.15 K, x1 = 0.1588 | 0.134 ± 0.00263 | –
[2], 291.15 K, x1 = 0.2303 | 0.183 ± 0.00335 | –
[2], 291.15 K, x1 = 0.2973 | 0.216 ± 0.00382 | –
[2], 291.15 K, x1 = 0.3551 | 0.237 ± 0.00406 | –
[2], 291.15 K, x1 = 0.4081 | 0.248 ± 0.0043 | –
[2], 291.15 K, x1 = 0.454 | 0.253 ± 0.0043 | –
[2], 291.15 K, x1 = 0.5114 | 0.251 ± 0.0043 | –
[2], 291.15 K, x1 = 0.5606 | 0.243 ± 0.00406 | –
[2], 291.15 K, x1 = 0.6177 | 0.228 ± 0.00382 | –
[2], 291.15 K, x1 = 0.6775 | 0.205 ± 0.00359 | –
[2], 291.15 K, x1 = 0.7406 | 0.176 ± 0.00311 | –
[2], 291.15 K, x1 = 0.8067 | 0.14 ± 0.00263 | –
[2], 291.15 K, x1 = 0.873 | 0.0959 ± 0.00198 | –
[2], 291.15 K, x1 = 0.94 | 0.0509 ± 0.00134 | –
[2], 318.15 K, x1 = 0.0808 | 0.105 ± 0.00215 | –
[2], 318.15 K, x1 = 0.1626 | 0.168 ± 0.00311 | –
[2], 318.15 K, x1 = 0.2415 | 0.217 ± 0.00382 | –
[2], 318.15 K, x1 = 0.311 | 0.248 ± 0.0043 | –
[2], 318.15 K, x1 = 0.3823 | 0.268 ± 0.00454 | –
[2], 318.15 K, x1 = 0.4464 | 0.275 ± 0.00454 | –
[2], 318.15 K, x1 = 0.4882 | 0.274 ± 0.00454 | –
[2], 318.15 K, x1 = 0.5104 | 0.275 ± 0.00454 | –
[2], 318.15 K, x1 = 0.5661 | 0.266 ± 0.00454 | –
[2], 318.15 K, x1 = 0.63 | 0.25 ± 0.0043 | –
[2], 318.15 K, x1 = 0.7075 | 0.219 ± 0.00382 | –
[2], 318.15 K, x1 = 0.7904 | 0.175 ± 0.00311 | –
[2], 318.15 K, x1 = 0.868 | 0.121 ± 0.00237 | –
[2], 318.15 K, x1 = 0.9412 | 0.0645 ± 0.00158 | –
